# Molecular target: T1, Bcl-2 protein (Recombinant Human Bcl-2 Protein) (Homo sapiens, UniProt P10415)
# T1 construct: purchased Novus NBP2-34889
# Assay: Binding evaluation of mixture library compounds to Bcl-2 using AS-MS (affinity selection mass spectrometry)
# Settings: for ASMS ratio (%) n = 1 / ASMS ratio (%) n = 2: ASMS Ratio(%)=(A−C)/B×100; for ASMS ratio (%) n = 1: replicate n = 1; for ASMS ratio (%) n = 2: replicate n = 2
# How it was run: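 Affinity selection MS: Bcl-2 20 μM + 1200-cpd mixture, […]/cpd, Tris pH 7.4 buffer w/ Tween-20, DTT; 1 h 23° C dark; P-2 spin SEC; MeCN/MeOH extraction; RP LC/MS. ASMS Ratio(%) = (A−C)/B×100.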
# [1] = AS-MS on the mixture of 1200 library compounds
# [2] = AS-MS, mixture of 1200 compounds, Bcl-2
# T1 sequence (P10415 whole entry): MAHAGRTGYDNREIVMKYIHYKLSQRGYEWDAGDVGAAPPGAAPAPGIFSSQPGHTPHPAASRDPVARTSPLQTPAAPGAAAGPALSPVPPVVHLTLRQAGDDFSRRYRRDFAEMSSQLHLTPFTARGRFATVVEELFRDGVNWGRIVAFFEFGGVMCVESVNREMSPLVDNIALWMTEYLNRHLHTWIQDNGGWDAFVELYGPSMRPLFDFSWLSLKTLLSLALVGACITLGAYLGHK
Compound,ASMS ratio (%) n = 1 [1],ASMS ratio (%) n = 2 [1],ASMS ratio (%) (n = 1),ASMS ratio (%) (n = 2),also measured
"CCOc1cncc(-c2cnn(-c3cc(C(=O)N4CCN(c5ccc(C(=O)N(CC)CC)nn5)CC4)cc(C(F)(F)F)c3)c2)c1 [B4J022-01, 6-[4-[3-[4-(5-Ethoxypyridin-3-yl)pyrazol-1-yl]-5-(trifluoromethyl)benzoyl]piperazin-1-yl]-N,N-diethylpyridazine-3-carboxamide]",0.2%,−0.7%,–,–,–
"CCOc1cncc(-c2ccccc2CCC(=O)N2CCN(c3ccc(C(=O)NS(C)(=O)=O)cc3)CC2)c1 [B2I034-01, 4-[4-[3-[2-(5-Ethoxypyridin-3-yl)phenyl]propanoyl]piperazin-1-yl]-N-methylsulfonylbenzamide]",–,–,–,–,"ASMS ratio (%) n = 1 (AS-MS, mixture library, Bcl-2): 0.0%; ASMS ratio (%) n = 2 (AS-MS, mixture library, Bcl-2): 1.6%"
"CCOc1cncc(-c2ccccc2CN2CCN(c3ccc(C(=O)NS(=O)(=O)CCC(F)(F)F)cc3)CC2)c1 [B2N046-01, 4-[4-[[2-(5-Ethoxypyridin-3-yl)phenyl]methyl]piperazin-1-yl]-N-(3,3,3-trifluoropropylsulfonyl)benzamide]",–,–,0.0%,−1.2%,–
6-[4-[4-(5-Ethoxypyridin-3-yl)thiophene-2-carbonyl]piperazin-1-yl]-N-propylpyridazine-3-carboxamide [B1M082-01],0.0%,0.0%,–,–,–
"CCOc1cncc(-c2csc(C(=O)N3CCN(c4ccc(C(=O)NS(=O)(=O)CCC(F)(F)F)cc4)CC3)c2)c1 [B2N024-01, 4-[4-[4-(5-Ethoxypyridin-3-yl)thiophene-2-carbonyl]piperazin-1-yl]-N-(3,3,3-trifluoropropylsulfonyl)benzamide]",–,–,0.0%,0.0%,–
"CCOc1cncc(-c2cnn(-c3cc(C(=O)N4CCN(c5ccc(C(=O)NS(=O)(=O)C(C)(C)C)nn5)CC4)cc(C(F)(F)F)c3)c2)c1 [B2L022-01, N-tert-Butylsulfonyl-6-[4-[3-[4-(5-ethoxypyridin-3-yl)pyrazol-1-yl]-5-(trifluoromethyl)benzoyl]piperazin-1-yl]pyridazine-3-carboxamide]",–,–,0.0%,0.0%,–
"CCOc1cccc(-c2cnn(-c3cc(C(=O)N4CCN(c5ccc(C(=O)Nc6ccc(OC)cc6)cc5)CC4)cc(C(F)(F)F)c3)c2)c1 [B1O043-01, 4-[4-[3-[4-(3-Ethoxyphenyl)pyrazol-1-yl]-5-(trifluoromethyl)benzoyl]piperazin-1-yl]-N-(4-methoxyphenyl)benzamide]",2.2%,−5.0%,–,–,–
"CCOc1cccc(-c2cc(CN3CCN(c4ccc(C(=O)NS(=O)(=O)c5ccc(NCCSc6ccccc6)c(C(F)(F)F)c5)cc4)CC3)cc(OC(F)(F)F)c2)c1 [B2R063-01, 4-[4-[[3-(3-Ethoxyphenyl)-5-(trifluoromethoxy)phenyl]methyl]piperazin-1-yl]-N-[4-(2-phenylsulfanylethylamino)-3-(trifluoromethyl)phenyl]sulfonylbenzamide]",–,–,8.2%,4.6%,–
"CCOc1cncc(C#Cc2cc(C(=O)N3CCN(c4ccc(C(=O)NS(=O)(=O)C(C)(C)C)cc4)CC3)cc(C(F)(F)F)c2)c1 [B2L042-01, N-tert-Butylsulfonyl-4-[4-[3-[2-(5-ethoxypyridin-3-yl)ethynyl]-5-(trifluoromethyl)benzoyl]piperazin-1-yl]benzamide]",–,–,0.0%,0.0%,–
"CCOc1cncc(C#Cc2cncc(C(=O)N3CCN(c4ccc(C(=O)NS(=O)(=O)c5ccc(NCCSc6ccccc6)c(C(F)(F)F)c5)nn4)CC3)c2)c1 [B2R010-01, 6-[4-[5-[2-(5-Ethoxypyridin-3-yl)ethynyl]pyridine-3-carbonyl]piperazin-1-yl]-N-[4-(2-phenylsulfanylethylamino)-3-(trifluoromethyl)phenyl]sulfonylpyridazine-3-carboxamide]",–,–,0.0%,0.0%,–
"CCOc1cccc(-c2cc(C(=O)N3CCN(c4ccc(C(=O)NS(=O)(=O)c5ccc(NCCSc6ccccc6)c(C(F)(F)F)c5)nn4)CC3)cc(C(C)(C)C)c2)c1 [B2R015-01, 6-[4-[3-tert-Butyl-5-(3-ethoxyphenyl)benzoyl]piperazin-1-yl]-N-[4-(2-phenylsulfanylethylamino)-3-(trifluoromethyl)phenyl]sulfonylpyridazine-3-carboxamide]",–,–,9.7%,0.0%,–
"CCOc1cccc(C#Cc2cc(C(=O)N3CCN(c4ccc(C(=O)NS(=O)(=O)c5ccc(NCCSc6ccccc6)c([N+](=O)[O-])c5)nn4)CC3)cc(C(F)(F)F)c2)c1 [B2Q019-01, 6-[4-[3-[2-(3-Ethoxyphenyl)ethynyl]-5-(trifluoromethyl)benzoyl]piperazin-1-yl]-N-[3-nitro-4-(2-phenylsulfanylethylamino)phenyl]sulfonylpyridazine-3-carboxamide]",–,–,–,–,"ASMS ratio (%) n = 1 (AS-MS, mixture library, Bcl-2): 0.7%; ASMS ratio (%) n = 2 (AS-MS, mixture library, Bcl-2): 14.1%"
"CCOc1cccc(-c2cc(C(=O)N3CCN(c4ccc(C(=O)NCC(F)(F)F)nn4)CC3)cc(C(C)(C)C)c2)c1 [B1K015-01, 6-[4-[3-tert-Butyl-5-(3-ethoxyphenyl)benzoyl]piperazin-1-yl]-N-(2,2,2-trifluoroethyl)pyridazine-3-carboxamide]",–,–,–,–,ASMS ratio (%) n = 1 [2]: 2.9%; ASMS ratio (%) n = 2 [2]: −1.8%
"CCOc1cncc(C#Cc2ccccc2C(=O)N2CCN(c3ccc(C(=O)N(CC)CC)cc3)CC2)c1 [B4J030-01, 4-[4-[2-[2-(5-Ethoxypyridin-3-yl)ethynyl]benzoyl]piperazin-1-yl]-N,N-diethylbenzamide]",0.1%,0.8%,–,–,–
"CCOc1cncc(-c2ccc(CN3CCN(c4ccc(C(=O)NS(=O)(=O)c5ccc(NCCSc6ccccc6)c([N+](=O)[O-])c5)cc4)CC3)cc2F)c1 [B2Q052-01, 4-[4-[[4-(5-Ethoxypyridin-3-yl)-3-fluorophenyl]methyl]piperazin-1-yl]-N-[3-nitro-4-(2-phenylsulfanylethylamino)phenyl]sulfonylbenzamide]",–,–,–,–,"ASMS ratio (%) n = 1 (AS-MS, mixture library, Bcl-2): 22.8%; ASMS ratio (%) n = 2 (AS-MS, mixture library, Bcl-2): 13.9%"
"CCOc1cccc(-c2ccc(CN3CCN(c4ccc(C(=O)NS(=O)(=O)CCC(F)(F)F)nn4)CC3)cc2C)c1 [B2N073-01, 6-[4-[[4-(3-Ethoxyphenyl)-3-methylphenyl]methyl]piperazin-1-yl]-N-(3,3,3-trifluoropropylsulfonyl)pyridazine-3-carboxamide]",–,–,0.0%,0.0%,–
"CCOc1cncc(-c2cnn(-c3cc(C(=O)N4CCN(c5ccc(C(=O)N(CC)CC)cc5)CC4)cc(C(F)(F)F)c3)c2)c1 [B4J044-01, 4-[4-[3-[4-(5-Ethoxypyridin-3-yl)pyrazol-1-yl]-5-(trifluoromethyl)benzoyl]piperazin-1-yl]-N,N-diethylbenzamide]",1.8%,0.3%,–,–,–
"CCOc1cccc(-c2ccc(CN3CCN(c4ccc(C(=O)NS(C)(=O)=O)cc4)CC3)c3ccccc23)c1 [B2I065-01, 4-[4-[[4-(3-Ethoxyphenyl)naphthalen-1-yl]methyl]piperazin-1-yl]-N-methylsulfonylbenzamide]",–,–,0.0%,0.0%,–
"CCOc1cccc(-c2csc(CN3CCN(c4ccc(C(=O)NCC(F)(F)F)cc4)CC3)c2)c1 [B1K067-01, 4-[4-[[4-(3-Ethoxyphenyl)thiophen-2-yl]methyl]piperazin-1-yl]-N-(2,2,2-trifluoroethyl)benzamide]",–,–,–,–,ASMS ratio (%) n = 1 [2]: 5.1%; ASMS ratio (%) n = 2 [2]: 1.8%
"CCOc1cccc(-c2ccc(C(=O)N3CCN(c4ccc(C(=O)NS(=O)(=O)C(C)(C)C)cc4)CC3)cc2C)c1 [B2L025-01, N-tert-Butylsulfonyl-4-[4-[4-(3-ethoxyphenyl)-3-methylbenzoyl]piperazin-1-yl]benzamide]",–,–,0.0%,0.0%,–
"CCOc1cccc(-c2cc(CN3CCN(c4ccc(C(=O)Nc5ccc(OC)cc5)nn4)CC3)cc(OCC)c2)c1 [B1O081-01, 6-[4-[[3-Ethoxy-5-(3-ethoxyphenyl)phenyl]methyl]piperazin-1-yl]-N-(4-methoxyphenyl)pyridazine-3-carboxamide]",3.2%,−2.2%,–,–,–
"CCOc1cncc(-c2ccc(CN3CCN(c4ccc(C(=O)N(CC)CC)cc4)CC3)c(OC)c2)c1 [B4J054-01, 4-[4-[[4-(5-Ethoxypyridin-3-yl)-2-methoxyphenyl]methyl]piperazin-1-yl]-N,N-diethylbenzamide]",0.0%,−1.1%,–,–,–
"CCOc1cccc(-c2csc(C(=O)N3CCN(c4ccc(C(=O)NS(=O)(=O)CC56CC7CC(CC(C7)C5)C6)cc4)CC3)c2)c1 [B2A023-01, N-(1-Adamantylmethylsulfonyl)-4-[4-[4-(3-ethoxyphenyl)thiophene-2-carbonyl]piperazin-1-yl]benzamide]",–,–,–,–,"ASMS ratio (%) n = 1 (AS-MS, mixture library, Bcl-2): 0.0%; ASMS ratio (%) n = 2 (AS-MS, mixture library, Bcl-2): 0.0%"
"CCOc1cncc(-c2cc(CN3CCN(c4ccc(C(=O)NS(=O)(=O)c5ccc(NCCSc6ccccc6)c([N+](=O)[O-])c5)cc4)CC3)cc(C(F)(F)F)c2)c1 [B2Q062-01, 4-[4-[[3-(5-Ethoxypyridin-3-yl)-5-(trifluoromethyl)phenyl]methyl]piperazin-1-yl]-N-[3-nitro-4-(2-phenylsulfanylethylamino)phenyl]sulfonylbenzamide]",–,–,–,–,"ASMS ratio (%) n = 1 (AS-MS, mixture library, Bcl-2): 9.4%; ASMS ratio (%) n = 2 (AS-MS, mixture library, Bcl-2): −3.3%"
4-[4-[[4-(5-Ethoxypyridin-3-yl)-2-methoxyphenyl]methyl]piperazin-1-yl]-N-propylbenzamide [B1M099-01],−0.7%,−0.3%,–,–,–

# — patent US20240132431A1, “METHOD FOR ALKYLATING ACIDIC FUNCTIONAL GROUP” (Chugai Seiyaku Kabushiki Kaisha, priority 2021, published 2024)
